Here are results for 18 compounds from US5763404A, “Methods for using LHRH antagonists with low histamine release” (priority 1995, dated 1998).

Starred links: 1 amine or outer side, 2 acyl side, 3 side chain; linkers in the order of their positions; H or OH if unused. Non-standard residues stand in square brackets, D forms with d. Residues, ends and D or L forms follow the SMILES beside them. *: point of attachment. dAla(cis-4-NHCOPyz-cHex) = N[C@H](C[C@H]1CC[C@@H](NC(=O)c2cnccn2)CC1)C(=O)O; X1 = O=C(N[C@H]1CC[C@@H](C[C@@H](N[*:1])C(=O)[*:2])CC1)c1ccccn1; X9 = CN=C(NCCC[C@H](N[*:1])C(=O)[*:2])N(C)C; dPhe(4-Cl) = N[C@H](Cc1ccc(Cl)cc1)C(=O)O; d2Nal = N[C@H](Cc1ccc2ccccc2c1)C(=O)O; Picolinoyl(6-Me) = Cc1cccc(C(=O)*)n1; dLys(Me2) = CN(C)CCCC[C@@H](N)C(=O)O; Lys(iPr) = CC(C)NCCCC[C@H](N)C(=O)O; Orn(iPr) = CC(C)NCCC[C@H](N)C(=O)O; Pyrazinecarbonyl = O=C(c1cnccn1)*; aIle = CC[C@@H](C)[C@H](N)C(=O)O; 3Pal = N[C@@H](Cc1cccnc1)C(=O)O; d3Pal = N[C@H](Cc1cccnc1)C(=O)O; Nicotinoyl = O=C(c1cccnc1)*; Picolinoyl = O=C(c1ccccn1)*; Pip = O=C(O)[C@@H]1CCCCN1

For the first series, the system named is anaesthesized rats. The series can be described thus: wheal test, intradermal injection. Type of series: in vivo, rat. On the set-up: Wheal (wheal response): unit not given here. The note with it: 10 ug peptide intradermally. The procedure, abridged: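 Anaesthetized rats given intradermal injection of 10 ug peptide in 100 ul saline; area of the wheal calculated from its diameter.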
With `CC(=O)N[C@H](Cc1ccc2ccccc2c1)C(=O)N[C@H](Cc1ccc(Cl)cc1)C(=O)N[C@H](Cc1cccnc1)C(=O)N[C@@H](CO)C(=O)N[C@@H](CCCCNC(=O)c1ccccn1)C(=O)N[C@H](CCCCNC(=O)c1ccccn1)C(=O)N[C@@H](CC(C)C)C(=O)N[C@@H](CCCCNC(C)C)C(=O)N1CCCC[C@H]1C(=O)N[C@H](C)C(N)=O` [compound 25937] (Ac-[d2Nal][dPhe(4-Cl)][d3Pal]SK(Picolinoyl)[dK](Picolinoyl)L[Lys(iPr)][Pip][dA]-NH2), the “Wheal Area” value was determined as 95.0 ± 0 mm^2 /10 μg.
As to `CC(=O)N[C@H](Cc1ccc2ccccc2c1)C(=O)N[C@H](Cc1ccc(Cl)cc1)C(=O)N[C@H](Cc1cccnc1)C(=O)N[C@@H](CO)C(=O)N[C@@H](CCCCNC(=O)c1ccccn1)C(=O)N[C@H](C[C@H]1CC[C@@H](NC(=O)c2cnccn2)CC1)C(=O)N[C@@H](CC(C)C)C(=O)N[C@@H](CCCCNC(C)C)C(=O)N1CCC[C@H]1C(=O)N[C@H](C)C(N)=O` [IBR 25897] (Ac-[d2Nal][dPhe(4-Cl)][d3Pal]SK(Picolinoyl)[dAla(cis-4-NHCOPyz-cHex)]L[Lys(iPr)]P[dA]-NH2), the “Wheal Area” value was determined as 122.8 ± 5.7 mm^2 /10 μg.
The same measure, in the same setting: under `CC(=O)N[C@H](Cc1ccc2ccccc2c1)C(=O)N[C@H](Cc1ccc(Cl)cc1)C(=O)N[C@H](Cc1cccnc1)C(=O)N[C@@H](CO)C(=O)N[C@@H](CCCCNC(=O)c1ccccn1)C(=O)N[C@H](C[C@H]1CC[C@@H](NC(=O)c2ccccn2)CC1)C(=O)N[C@@H](CC(C)C)C(=O)N[C@@H](CCCCNC(C)C)C(=O)N1CCC[C@H]1C(=O)N[C@H](C)C(N)=O` [IV-4] (Ac-[d2Nal][dPhe(4-Cl)][d3Pal]SK(Picolinoyl)[X1]L[Lys(iPr)]P[dA]-NH2) stands 123.0 ± 5.0 mm^2 /10 μg.
As to `CC(=O)N[C@H](Cc1ccc2ccccc2c1)C(=O)N[C@H](Cc1ccc(Cl)cc1)C(=O)N[C@H](Cc1cccnc1)C(=O)N[C@@H](CO)C(=O)N[C@@H](CCCCNC(=O)c1ccccn1)C(=O)N[C@H](CCCCNC(=O)c1ccccn1)C(=O)N[C@@H](Cc1c[nH]c2ccccc12)C(=O)N[C@@H](CCCCNC(C)C)C(=O)N1CCC[C@H]1C(=O)N[C@H](C)C(N)=O` [compound 25935] (Ac-[d2Nal][dPhe(4-Cl)][d3Pal]SK(Picolinoyl)[dK](Picolinoyl)W[Lys(iPr)]P[dA]-NH2), the “Wheal Area” value is recorded as 78.5 ± 0 mm^2 /10 μg.
Consider `CC(=O)N[C@H](Cc1ccc2ccccc2c1)C(=O)N[C@H](Cc1ccc(Cl)cc1)C(=O)N[C@H](Cc1c[nH]c2ccccc12)C(=O)N[C@@H](CO)C(=O)N[C@@H](CCCCNC(=O)c1ccccn1)C(=O)N[C@H](CCCCNC(=O)c1ccccn1)C(=O)N[C@@H](CC(C)C)C(=O)N[C@@H](CCCCNC(C)C)C(=O)N1CCC[C@H]1C(=O)N[C@H](C)C(N)=O` [compound 26177] (Ac-[d2Nal][dPhe(4-Cl)][dW]SK(Picolinoyl)[dK](Picolinoyl)L[Lys(iPr)]P[dA]-NH2), for which the “Wheal Area” value stood at 71.0 ± 4.3 mm^2 /10 μg.
On to `CC(=O)N[C@H](Cc1ccc2ccccc2c1)C(=O)N[C@H](Cc1ccc(Cl)cc1)C(=O)N[C@H](Cc1cccnc1)C(=O)N[C@@H](CO)C(=O)N[C@@H](CCCCNC(=O)c1cccc(C)n1)C(=O)N[C@H](CCCCNC(=O)c1cccc(C)n1)C(=O)N[C@@H](CC(C)C)C(=O)N[C@@H](CCCCNC(C)C)C(=O)N1CCC[C@H]1C(=O)N[C@H](C)C(N)=O` [compound 25808] (Ac-[d2Nal][dPhe(4-Cl)][d3Pal]SK(Picolinoyl(6-Me))[dK](Picolinoyl(6-Me))L[Lys(iPr)]P[dA]-NH2), for which the “Wheal Area” value worked out at 106.2 ± 4.3 mm^2 /10 μg.

The same series, now with this note: Table I; 10 ug peptide intradermally.
`CC(=O)N[C@H](Cc1ccc2ccccc2c1)C(=O)N[C@H](Cc1ccc(Cl)cc1)C(=O)N[C@H](Cc1cccnc1)C(=O)N[C@@H](CO)C(=O)N[C@@H](Cc1cccnc1)C(=O)N[C@H](CCCCNC(=O)c1cccnc1)C(=O)N[C@@H](CC(C)C)C(=O)N[C@@H](CCCCNC(C)C)C(=O)N1CCC[C@H]1C(=O)N[C@H](C)C(N)=O` [compound 25383] (Ac-[d2Nal][dPhe(4-Cl)][d3Pal]S[3Pal][dK](Nicotinoyl)L[Lys(iPr)]P[dA]-NH2) showed a Wheal of 132.8 mm^2 /10.
For `CC(=O)N[C@H](Cc1ccc2ccccc2c1)C(=O)N[C@H](Cc1ccc(Cl)cc1)C(=O)N[C@H](Cc1cccnc1)C(=O)N[C@@H](CO)C(=O)N[C@@H](CCCNC(=N)N)C(=O)N[C@H](CCCCNC(=O)c1cccnc1)C(=O)N[C@@H](CC(C)C)C(=O)N[C@@H](CCCCNC(C)C)C(=O)N1CCC[C@H]1C(=O)N[C@H](C)C(N)=O` [compound 25335] (Ac-[d2Nal][dPhe(4-Cl)][d3Pal]SR[dK](Nicotinoyl)L[Lys(iPr)]P[dA]-NH2), the Wheal is recorded as 196.9 mm^2 /10.
Same read-out and setting: next, `CC(=O)N[C@H](Cc1ccc2ccccc2c1)C(=O)N[C@H](Cc1ccc(Cl)cc1)C(=O)N[C@H](Cc1cccnc1)C(=O)N[C@@H](CO)C(=O)N[C@@H](Cc1cccnc1)C(=O)N[C@H](CCCCNC(=O)c1cccnc1)C(=O)N[C@@H](CC(C)C)C(=O)N[C@@H](CCCNC(C)C)C(=O)N1CCC[C@H]1C(=O)N[C@H](C)C(N)=O` [compound 25384] (Ac-[d2Nal][dPhe(4-Cl)][d3Pal]S[3Pal][dK](Nicotinoyl)L[Orn(iPr)]P[dA]-NH2): 139.9 mm^2 /10.
Turning to `CC[C@H](C)[C@H](NC(=O)[C@H](CO)NC(=O)[C@@H](Cc1cccnc1)NC(=O)[C@@H](Cc1ccc(Cl)cc1)NC(=O)[C@@H](Cc1ccc2ccccc2c1)NC(C)=O)C(=O)N[C@H](CCCCNC(=O)c1cccnc1)C(=O)N[C@@H](CC(C)C)C(=O)N[C@@H](CCCNC(C)C)C(=O)N1CCC[C@H]1C(=O)N[C@H](C)C(N)=O` [compound 25145] (Ac-[d2Nal][dPhe(4-Cl)][d3Pal]SI[dK](Nicotinoyl)L[Orn(iPr)]P[dA]-NH2), the Wheal is reported as 116.5 mm^2 /10.
Same read-out and setting: under `CC(=O)N[C@H](Cc1ccc2ccccc2c1)C(=O)N[C@H](Cc1ccc(Cl)cc1)C(=O)N[C@H](Cc1cccnc1)C(=O)N[C@@H](CO)C(=O)N[C@@H](Cc1ccc(O)cc1)C(=O)N[C@H](CCCCNC(=O)c1cccnc1)C(=O)N[C@@H](CC(C)C)C(=O)N[C@@H](CCCCN)C(=O)N1CCC[C@H]1C(=O)N[C@H](C)C(N)=O` [compound 24825] (Ac-[d2Nal][dPhe(4-Cl)][d3Pal]SY[dK](Nicotinoyl)LKP[dA]-NH2) stands 119.5 ± 3.2 mm^2 /10; under `CN=C(NCCC[C@H](NC(=O)[C@H](CO)NC(=O)[C@@H](Cc1cccnc1)NC(=O)[C@@H](Cc1ccc(Cl)cc1)NC(=O)[C@@H](Cc1ccc2ccccc2c1)NC(C)=O)C(=O)N[C@H](CCCCNC(=O)c1cccnc1)C(=O)N[C@@H](CC(C)C)C(=O)N[C@@H](CCCCNC(C)C)C(=O)N1CCC[C@H]1C(=O)N[C@H](C)C(N)=O)N(C)C` [compound 24931] (Ac-[d2Nal][dPhe(4-Cl)][d3Pal]S[X9][dK](Nicotinoyl)L[Lys(iPr)]P[dA]-NH2), 140 ± 7.0 mm^2 /10.
Same read-out and setting: under `CC(=O)N[C@H](Cc1ccc2ccccc2c1)C(=O)N[C@H](Cc1ccc(Cl)cc1)C(=O)N[C@H](Cc1cccnc1)C(=O)N[C@@H](CO)C(=O)N[C@@H](CCCCNC(=O)c1cccnc1)C(=O)N[C@@H](CCCCNC(=O)c1cccnc1)C(=O)N[C@@H](CC(C)C)C(=O)N[C@@H](CCCCNC(C)C)C(=O)N1CCC[C@H]1C(=O)N[C@H](C)C(N)=O` [compound 24934] (Ac-[d2Nal][dPhe(4-Cl)][d3Pal]SK(Nicotinoyl)K(Nicotinoyl)L[Lys(iPr)]P[dA]-NH2) stands 123 ± 5.9 mm^2 /10; under `CC(=O)N[C@H](Cc1ccc2ccccc2c1)C(=O)N[C@H](Cc1ccc(Cl)cc1)C(=O)N[C@H](Cc1cccnc1)C(=O)N[C@@H](CO)C(=O)N[C@@H](CCCCNC(=O)c1cccnc1)C(=O)N[C@H](CCCCN(C)C)C(=O)N[C@@H](CC(C)C)C(=O)N[C@@H](CCCCNC(C)C)C(=O)N1CCC[C@H]1C(=O)N[C@H](C)C(N)=O` [compound 25591] (Ac-[d2Nal][dPhe(4-Cl)][d3Pal]SK(Nicotinoyl)[dLys(Me2)]L[Lys(iPr)]P[dA]-NH2), 111 ± 2 mm^2 /10.
`CC(=O)N[C@H](Cc1ccc2ccccc2c1)C(=O)N[C@H](Cc1ccc(Cl)cc1)C(=O)N[C@H](Cc1cccnc1)C(=O)N[C@@H](CO)C(=O)N[C@@H](CCCCNC(=O)c1cccnc1)C(=O)N[C@H](CCCCNC(=O)c1cnccn1)C(=O)N[C@@H](CC(C)C)C(=O)N[C@@H](CCCCNC(C)C)C(=O)N1CCC[C@H]1C(=O)N[C@H](C)C(N)=O` [compound 25649] (Ac-[d2Nal][dPhe(4-Cl)][d3Pal]SK(Nicotinoyl)[dK](Pyrazinecarbonyl)L[Lys(iPr)]P[dA]-NH2) displayed a Wheal of 122.2 ± 5.1 mm^2 /10.
Compound `CC(=O)N[C@H](Cc1ccc2ccccc2c1)C(=O)N[C@H](Cc1ccc(Cl)cc1)C(=O)N[C@H](Cc1cccnc1)C(=O)N[C@@H](CO)C(=O)N[C@@H](CCCCNC(=O)c1ccccn1)C(=O)N[C@H](CCCCNC(=O)c1ccccn1)C(=O)N[C@@H](CC(C)C)C(=O)N[C@@H](CCCCNC(C)C)C(=O)N1CCC[C@H]1C(=O)N[C@H](C)C(N)=O` [compound 25147] (Ac-[d2Nal][dPhe(4-Cl)][d3Pal]SK(Picolinoyl)[dK](Picolinoyl)L[Lys(iPr)]P[dA]-NH2) registered a Wheal of 123.0 mm^2 /10.

The same series, now with this note: Table XIV and text, unit not given.
With `CC(=O)N[C@H](Cc1ccc2ccccc2c1)C(=O)N[C@H](Cc1ccc(Cl)cc1)C(=O)N[C@H](Cc1cccnc1)C(=O)N[C@@H](CO)C(=O)N[C@@H](CCCCNC(=O)c1ccccn1)C(=O)N[C@H](C[C@H]1CC[C@@H](NC(=O)c2cnccn2)CC1)C(=O)N[C@@H](CC(C)C)C(=O)N[C@@H](CCCCNC(C)C)C(=O)N1CCC[C@H]1C(=O)N[C@H](C)C(N)=O` [compound 25897] (Ac-[d2Nal][dPhe(4-Cl)][d3Pal]SK(Picolinoyl)[dAla(cis-4-NHCOPyz-cHex)]L[Lys(iPr)]P[dA]-NH2), the “Wheal (wheal response)” value is 122.8.
On to `CC[C@@H](C)[C@H](NC(=O)[C@@H](CCCCNC(=O)c1ccccn1)NC(=O)[C@H](CCCCNC(=O)c1ccccn1)NC(=O)[C@H](CO)NC(=O)[C@@H](Cc1cccnc1)NC(=O)[C@@H](Cc1ccc(Cl)cc1)NC(=O)[C@@H](Cc1ccc2ccccc2c1)NC(C)=O)C(=O)N[C@@H](CCCNC(C)C)C(=O)N1CCC[C@H]1C(=O)N[C@H](C)C(N)=O` [IBR 26178] (Ac-[d2Nal][dPhe(4-Cl)][d3Pal]SK(Picolinoyl)[dK](Picolinoyl)[aIle][Orn(iPr)]P[dA]-NH2), for which the “Wheal (wheal response)” value came to 78.6±4.5.
